# According to paper PMC5584945, “Evaluation of robenidine analog NCL195 as a novel broad-spectrum antibacterial agent” (PLoS ONE, 2017):
# Key:
# human red blood cells = test: Haemolysis assay; type: cell-based; details: 1 h, 37°C; highest concentration used 128 μg/ml
# Protocol: This was performed using fresh donor human red blood cells (RBCs), essentially as described previously. Fresh RBCs were washed in PBS three times at 500 × g for 5 min, and then resuspended 1% (w/v) in PBS. […] Thereafter, 198 μL of the 1% RBC solution was added into each well, and the mixture incubated for 1 h at 37°C, with shaking at 100 rpm. Quadruplicate wells containing either 1% Triton X100, or PBS only, served as controls. After incubation, the trays were centrifuged at 1,000 × g for 3 min and 100 μl of supernatant from each well transferred into a new 96-well tray. Absorbance was measured at A450 nm on a Multiskan Ascent 354 Spectrophotometer (Labsystems) and plotted against each dilution. Haemolytic titer was determined as the reciprocal of the dilution at which 50% of erythrocytes were lysed at A450 nm. The experiment was performed twice.
# S. pneumoniae = test: MIC, broth micro-dilution (CLSI); type: cell-based, Streptococcus pneumoniae; details: for MIC / MIC50 / MIC90: Streptococcus pneumoniae
# S. aureus = test: MIC, broth micro-dilution (CLSI); type: cell-based, Staphylococcus aureus; details: for MIC: Staphylococcus aureus, ATCC 12600 / MSSA, ATCC12600 [Xen29] (MSSA)
compound,measurement,setting,value
"C/C(=N\NC(=N)N/N=C(\C)c1ccc(C(C)(C)C)cc1)c1ccc(C(C)(C)C)cc1 [NCL219, (E)-N'-((E)-1-(4-(tert-butyl)phenyl)ethylidene)-2-(1-(4-(tert-butyl)phenyl)ethylidene)hydrazine-1-carboximidhydrazide]",50% haemolysis titre (HC50),human red blood cells,6 µg/mL
same,MIC range,S. pneumoniae; 21 isolates,1 to 8 µg/mL
same,MIC range,"S. pneumoniae; S1 Table isolates, 5% FBS + 3% washed RBC",1 to 8 µg/mL
same,MIC range,"S. pneumoniae; S1 Table isolates, 10% FBS + 3% washed RBC",1 to 8 µg/mL
same,MIC,"S. pneumoniae; A66.1 (serotype 3), 5% FBS",4 µg/mL
same,MIC,"S. pneumoniae; A66.1 (serotype 3), 10% FBS",4 µg/mL
same,MIC,"S. pneumoniae; ATCC6303, ATCC 6303 (serotype 3), 5% FBS + 3% washed RBC",1 µg/mL
same,MIC,"S. pneumoniae; ATCC6303, ATCC 6303 (serotype 3), 10% FBS + 3% washed RBC",1 µg/mL
same,MIC,"S. pneumoniae; D39/D39LUX (serotype 2), 5% FBS",4 µg/mL
same,MIC,"S. pneumoniae; D39/D39LUX (serotype 2), 10% FBS",4 µg/mL
same,MIC,"S. pneumoniae; L82016 (serotype 6B), 5% FBS",2 µg/mL
same,MIC,"S. pneumoniae; L82016 (serotype 6B), 10% FBS",2 µg/mL
same,MIC,"S. pneumoniae; P9 (serotype 6A), 5% FBS",4 µg/mL
same,MIC,"S. pneumoniae; P9 (serotype 6A), 10% FBS",4 µg/mL
same,MIC,"S. pneumoniae; P21 (serotype 3), 5% FBS",4 µg/mL
same,MIC,"S. pneumoniae; P21 (serotype 3), 10% FBS",4 µg/mL
same,MIC50,"S. pneumoniae; S1 Table isolates, 5% FBS",4 µg/mL
same,MIC90,"S. pneumoniae; S1 Table isolates, 5% FBS",4 µg/mL
same,MIC50,"S. pneumoniae; S1 Table isolates, 10% FBS",4 µg/mL
same,MIC90,"S. pneumoniae; S1 Table isolates, 10% FBS",8 µg/mL
same,MIC,"S. pneumoniae; TIGR4 (serotype 4), 5% FBS",2 µg/mL
same,MIC,"S. pneumoniae; TIGR4 (serotype 4), 10% FBS",2 µg/mL
same,MIC,"S. pneumoniae; WCH16 (serotype 6A), 5% FBS",2 µg/mL
same,MIC,"S. pneumoniae; WCH16 (serotype 6A), 10% FBS",2 µg/mL
same,MIC,"S. pneumoniae; WCH43 (serotype 4), 5% FBS",2 µg/mL
same,MIC,"S. pneumoniae; WCH43 (serotype 4), 10% FBS",2 µg/mL
same,MIC,"S. pneumoniae; WCH46 (serotype 4), 5% FBS",4 µg/mL
same,MIC,"S. pneumoniae; WCH46 (serotype 4), 10% FBS",4 µg/mL
same,MIC,"S. pneumoniae; WCH57 (serotype 8), 5% FBS",4 µg/mL
same,MIC,"S. pneumoniae; WCH57 (serotype 8), 10% FBS",4 µg/mL
same,MIC,"S. pneumoniae; WCH86 (serotype 4), 5% FBS",4 µg/mL
same,MIC,"S. pneumoniae; WCH86 (serotype 4), 10% FBS",4 µg/mL
same,MIC,"S. pneumoniae; WCH89 (serotype 7), 5% FBS",8 µg/mL
same,MIC,"S. pneumoniae; WCH89 (serotype 7), 10% FBS",4 µg/mL
same,MIC,"S. pneumoniae; WCH92 (serotype 4), 5% FBS",4 µg/mL
same,MIC,"S. pneumoniae; WCH92 (serotype 4), 10% FBS",4 µg/mL
same,MIC,"S. pneumoniae; WCH137 (serotype 6A), 5% FBS",4 µg/mL
same,MIC,"S. pneumoniae; WCH137 (serotype 6A), 10% FBS",4 µg/mL
same,MIC,"S. pneumoniae; WCH158 (serotype 19F), 5% FBS",8 µg/mL
same,MIC,"S. pneumoniae; WCH158 (serotype 19F), 10% FBS",8 µg/mL
same,MIC,"S. pneumoniae; WCH184 (serotype 19F), 5% FBS",2 µg/mL
same,MIC,"S. pneumoniae; WCH184 (serotype 19F), 10% FBS",2 µg/mL
same,MIC,"S. pneumoniae; WCH211 (serotype 11), 5% FBS",4 µg/mL
same,MIC,"S. pneumoniae; WCH211 (serotype 11), 10% FBS",4 µg/mL
same,MIC,"S. pneumoniae; WU2 (serotype 3), 5% FBS",4 µg/mL
same,MIC,"S. pneumoniae; WU2 (serotype 3), 10% FBS",4 µg/mL
same,Fold increase of MIC range in the presence of 10% FBS,S. aureus; 10% FBS versus no FBS,remained essentially the same
same,MIC,S. aureus; 10% FBS,4 µg/mL
same,MIC,S. aureus; absence of FBS,32 µg/mL
